From patent publication US20240189315A1, “Cyclic Pyridine Derivatives as cGAS Inhibitors” (Boehringer Ingelheim International GmbH, priority 2022, published 2024)
pIC50: −log10 of the molar value. Like-named read-outs stand apart in the source and are kept apart here.

Columns and labels:
Human cGAS enzyme = Human cGAS enzyme (Homo sapiens (Human), UniProt Q8N884); assay: Human cGAS enzyme assay (hcGAS IC50, in vitro), cGAMP formation by RapidFire MS; assay type: biochemical;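 note: recombinant human cGAS activated by 45 bp dsDNA with 30 µM each ATP and GTP, 90 min, cGAMP vs cyclic-di-GMP standard by MS, 8-point titration from 10 µM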
[1] = test system: pathway directly downstream of cGAS in cGAMP-stimulated THP1-Dual cells; assay: cGAMP stimulated counter cell assay (THP1(cGAMP) IC50): IFN induction in cGAMP-stimulated THP1-Dual cells; assay type: cell-based, human; details: for pIC50: Homo sapiens, THP1-Dual; for Ratio THP(cGAMP) IC50/ THP(vir) IC50: selectivity for cGAS inhibition
Source text: 6.2 Method: Human cGAS Cell Assay and cGAMP Stimulated Counter Cell Assay (THP1(vir) IC50 and THP1(cGAMP) IC50)
THP1-Dual™ cells (InvivoGen #thpd-nfis) expressing IRF dependent Lucia luciferase reporter were used as basis for both assays. For the detection of cellular cGAS activity cells were stimulated by a baculovirus (pFastbac-1, Invitrogen, no coding insert) infection that delivers the cGAS enzyme stimulating double-stranded DNA (measurement of THP1(vir) IC50).
For the counter assay, cells were stimulated by cGAMP (SigmaAldrich #SML1232) to activate the identical pathway independent and directly downstream of cGAS (measurement of THP1(cGAMP) IC50). Pathway activity was monitored by measuring the Lucia luciferase activity induced by either DNA stimulated cGAS enzyme activity (measurement of THP1(vir) IC50) or by cGAMP directly (measurement of THP1(cGAMP) IC50, counter assay).
Compounds were delivered in 10 mM DMSO solution, serially diluted and transferred to the 384 well assay plate (Greiner #781201) using an Echo acoustic dispenser. Typically, 8 concentrations were used with the highest concentration at 10 μM in the final assay volume followed by ˜1:5 dilution steps. DMSO concentration was set to 1% in the final assay volume. The 384 well assay plate contained 21 test compounds (column 1-22), and DMSO in column 23 and 24.
Cells, cultivated according to manufacturer conditions, were harvested by centrifugation at 300 g/10 min and were then resuspended and diluted to 1.66E5 cells/ml in fresh cell culture medium (RPMI 1640 (Gibco #A10491-01), 10% FCS (Gibco #10500), 1× GlutaMax (Gibco #35050-061), 1× Pen/Strep solution (Gibco #15140-122), 100 μg/ml Normocin (InvivoGen #ant-nr), 100 μg/ml Zeocin (InvivoGen #ant-zn), 10 μg/ml Blasticidin S (Life Technologies #A11139-03)). The baculovirus solution was then added 1:200 (have varied according to virus batch) to the cells (measurement of THP1(vir) IC50). […] 30 μL of the cell/virus-mix were added to each well of the compound plate from column 1-23 via MultiDrop Combi dispenser (5000 cells/well). In column 24, 30 μl/5000 cells/well without virus were added as a low control.
The plates were then incubated for 18 h at 37° C. in a humidified incubator.
Following that, 15 μL of QuantiLuc detection reagent (InvivoGen #rep-qlcg5) were added to each well using a MultiDrop Combi. Measurement was done immediately after the addition using an EnVision reader (US-luminescence read-mode).
Data Evaluation and Calculation:
For data evaluation and calculation, the measurement of the low control was set as 0% control and the measurement of the high control was set as 100% control. The IC50 values were calculated using the standard 4 parameter logistic regression formula. Calculation: [y=(a−d)/(1+(x/c)^b)+d], a=low value, d=high value; x=conc M; c=IC50 M; b=slope

[2] = biological target: cellular cGAS activity in dsDNA-stimulated human whole blood (Homo sapiens (Human), UniProt Q8N884); assay: Human whole blood assay (hWB IC50): IFNα2a production after dsDNA transfection; assay type: cell-based;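 note: IFNα-2a in plasma measured by MSD electrochemiluminescence immunoassay after 22 h at 37 °C, 8-point dilution series from 10 µM top concentration, DMSO wells as controls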
[3] = biological target: cellular cGAS activity in baculovirus-stimulated THP1-Dual cells (Homo sapiens (Human), UniProt Q8N884); assay: Human cGAS cell assay (THP1(vir) IC50): IFN induction in virus-stimulated THP1-Dual cells, IRF Lucia luciferase reporter; assay type: cell-based;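 note: Eight-point dilution series starting at 10 µM, 1% DMSO, 18 h at 37 °C, luminescence read-out, virus-free wells as 0% and DMSO-treated virus-stimulated wells as 100%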
[4] = Table 1, cGAMP-stimulated THP1 cells, read-out: THP(cGAMP) IC50
[5] = Table 1, dsDNA-stimulated human whole blood
[6] = Table 1, virus-stimulated THP1 cells, read-out: THP(vir) IC50

Sequence of Human cGAS enzyme (Q8N884 whole entry): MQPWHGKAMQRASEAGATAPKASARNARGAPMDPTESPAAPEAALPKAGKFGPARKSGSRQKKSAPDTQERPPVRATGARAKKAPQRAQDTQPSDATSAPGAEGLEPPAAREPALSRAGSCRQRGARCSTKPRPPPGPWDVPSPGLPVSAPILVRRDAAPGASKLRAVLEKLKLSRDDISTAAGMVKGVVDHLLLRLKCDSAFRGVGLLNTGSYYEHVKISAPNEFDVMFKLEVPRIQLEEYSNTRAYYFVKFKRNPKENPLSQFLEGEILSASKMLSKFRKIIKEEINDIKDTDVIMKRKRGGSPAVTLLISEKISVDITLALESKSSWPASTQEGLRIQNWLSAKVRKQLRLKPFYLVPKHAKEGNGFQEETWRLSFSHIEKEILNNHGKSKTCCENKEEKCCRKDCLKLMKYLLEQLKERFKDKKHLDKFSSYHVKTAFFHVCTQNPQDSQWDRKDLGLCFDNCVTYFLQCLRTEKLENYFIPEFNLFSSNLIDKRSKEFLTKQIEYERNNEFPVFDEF
Sequence of cellular cGAS activity in dsDNA-stimulated human whole blood (Q8N884 whole entry): as above
Sequence of cellular cGAS activity in baculovirus-stimulated THP1-Dual cells (Q8N884 whole entry): as above

Row | SMILES | pIC50 (Human cGAS enzyme; Table 1) | pIC50 [1, 4] | Ratio THP(cGAMP) IC50/ THP(vir) IC50 ([1]; Table 1) | pIC50 [2, 5] | pIC50 [3, 6] | pIC50 ([1]; Table 2, compounds from WO 2020/142729, read-out: THP1(cGAMP) IC50) | pIC50 ([2]; Table 2, compounds from WO 2020/142729) | pIC50 ([3]; Table 2, compounds from WO 2020/142729, read-out: THP1(vir) IC50) | pIC50 (Human cGAS enzyme; Table 2, compounds from WO 2020/142729 re-tested in the applicant's assay) | pIC50 ([3]; virus-stimulated THP1 cells, read-out: THP1(vir) IC50)
1 | C[C@H]1CCCOCc2nc(c3oc4ccccc4c3n2)N2C[C@H](C[C@H]2C(=O)O)Oc2ncc(Cl)cc2[C@@]2(F)CCN(C[C@@H]2C)C1=O (single isomer, unassigned) [Example 09] | 7.35 | 5.46 | 15 | 6.79 | 6.62 | – | – | – | – | –
2 | C[C@H]1CN2CC[C@]1(F)c1cc(Cl)cnc1O[C@H]1C[C@@H](C(=O)O)N(C1)c1nc(nc3c1oc1ccccc13)CC(=O)NCCCC2=O [Example 01, (1R,9S,11S,34S)-4-Chloro-1-fluoro-34-methyl-26,31-dioxo-8,15-dioxa-6,12,23,27,32,37-hexaaza-heptacyclo[30.2.2.1^9,12.1^13,24.0^2,7.0^14,22.0^16,21]octatriaconta-2,4,6,13(37),14(22),16(21),17,19,23-nonaene-11-carboxylic acid] | 7.60 | 5.54 | 19 | 6.68 | 6.82 | – | – | – | – | –
3 | C[C@H]1CN2CC[C@]1(F)c1cc(Cl)cnc1O[C@H]1C[C@@H](C(=O)O)N(C1)c1nc(nc3c1oc1ccccc13)CC(=O)NCCOC2=O [Example 02, (1R,9S,11S,34S)-4-chloro-1-fluoro-34-methyl-26,31-dioxo-8,15,30-trioxa-6,12,23,27,32,37-hexaazaheptacyclo[30.2.2.1^9,12.1^13,24.0^14,22..0^16,21]octatriaconta-2,4,6,13(37),14(22),16(21),17,19,23-nonaene-11-carboxylic acid] | 7.77 | < 5.00 | 94 | 6.94 | 6.96 | – | – | – | – | –
4 | C[C@H]1CN2CC[C@]1(F)c1cc(Cl)cnc1O[C@H]1C[C@@H](C(=O)O)N(C1)c1nc(nc3c1oc1ccccc13)C(F)(F)CCCCCC2=O [Example 05, (1R,9S,11S,34S)-4-chloro-1,25,25-trifluoro-34-methyl-31-oxo-8,15-dioxa-6,12,23,32,37-pentaazaheptacyclo[30.2.2.1^9,12.1^13,24.0^2,7.0^14,22.0^16,21]octatriaconta-2,4,6,13,16,18,20,22,24(37)-nonaene-11-carboxylicacid] | 7.92 | 5.03 | 158 | 6.94 | 7.23 | – | – | – | – | –
5 | C[C@H]1CN2CC[C@]1(F)c1cc(Cl)cnc1O[C@H]1C[C@@H](C(=O)O)N(C1)c1nc(nc3c1oc1ccccc13)C(F)(F)CCCCC(F)(F)C2=O [Example 06, (1R,9S,11S,34S)-4-chloro-1,25,25,30,30-pentafluoro-34-methyl-31-oxo-8,15-dioxa-6,12,23,32,37-pentaazaheptacyclo[30.2.2.1^9,12.1^13,24.0^2,7.0^14,22.0^16,21]-octatriaconta-2,4,6,13(37),14(22),16(21),17,19,23-nonaene-11-carboxylic acid] | 7.74 | < 5.00 | 65 | 6.65 | 6.82 | – | – | – | – | –
6 | O=C(O)[C@@H]1C[C@H]2CN1c1nc(nc3c1oc1ccccc13)C(F)(F)CCCCCC(=O)N1CCC(F)(CC1)c1cc(Cl)cnc1O2 [Example 07] | 7.00 | 4.92 | 37 | 6.12 | 6.49 | – | – | – | – | –
7 | C[C@H]1CN2CC[C@]1(F)c1cc(Cl)cnc1O[C@H]1C[C@@H](C(=O)O)N(C1)c1nc(nc3c1oc1ccccc13)COCCCCC2=O [Example 08, (1R,9S,11S,34S)-4-chloro-1-fluoro-34-methyl-31-oxo-8,15,26-trioxa-6,12,23,32,37-pentaazabestacyclo[30.2.2.1^9,12.1^13,24.0^2,7.0^14,22.0^16,21]octatriaconta-2,4,6,13(37),14(22),16(21),17,19,23-nonaene-11-carboxylic acid] | 7.66 | < 5.00 | 69 | 7.36 | 6.85 | – | – | – | – | –
8 | C[C@H]1CN2CC[C@]1(F)c1cc(Cl)cnc1O[C@H]1C[C@@H](C(=O)O)N(C1)c1nc(nc3c1oc1ccccc13)COCCCC(F)(F)C2=O [Example 10, (1R,9S,11S,34S)-4-chloro-1,30,30-trifluoro-34-methyl-31-oxo-8,15,26-trioxa-6,12,23,32,37-pentaazaheptacyclo[30.2.2.1^9,12.1^13,24.0^2,7.0^14,22.0^16,21]octatriaconta-2,4,6,13,16,18,20,22,24(37)-nonaene-11-carboxylic acid] | 7.17 | 4.92 | 61 | 6.47 | 6.72 | – | – | – | – | –
9 | C[C@H]1CN2CC[C@]1(F)c1cc(Cl)cnc1O[C@H]1C[C@@H](C(=O)O)N(C1)c1nc(nc3c1oc1ccccc13)COC(=O)CCC2=O [Example 11, (1R,9S,11S,33S)-4-Chloro-1-fluoro-33-methyl-27,30-dioxo-8,15,26-trioxa-6,12,23,31,36-pentaazaheptacyclo[29.2.2.1^9,12.1^13,24.0^2,7.0^14,22.0^16,21]heptatriaconta-2,4,6,13(36),14(22),16(21),17,19,23-nonaene-11-carboxylic acid] | 8.55 | < 5.00 | 902 | 8.05 | 7.96 | – | – | – | – | –
10 | C[C@H]1CN2CC[C@]1(F)c1cc(Cl)cnc1O[C@H]1C[C@@H](C(=O)O)N(C1)c1nc(nc3c1oc1ccccc13)COCCCCCC2=O [Example 12] | 7.77 | 5.00 | 17 | 7.08 | 6.21 | – | – | – | – | –
11 | C[C@H]1CN2CC[C@]1(F)c1cc(Cl)cnc1O[C@H]1C[C@@H](C(=O)O)N(C1)c1nc(nc3c1oc1ccccc13)COCCCOC2=O [Example 13, (1R,9S,11S,34S)-4-chloro-1-fluoro-34-methyl-31-oxo-8,15,26,30-tetraoxa-6,12,23,32,37-pentaaabestacyclo[30.2.2.1^9,12.1^13,24.0^14,22.0^16,21]octatriaconta-2(7),3,5,13(37),14(22),16(21),17,19,23-nonaene-11-carboxylic acid] | 7.66 | 4.80 | 256 | 6.83 | 7.38 | – | – | – | – | –
12 | C[C@H]1CN2CC[C@]1(F)c1cc(Cl)cnc1O[C@H]1C[C@@H](C(=O)O)N(C1)c1nc(nc3c1oc1ccccc13)COCCOCC2=O [Example 14] | 7.82 | < 5.00 | 282 | 6.87 | 7.44 | – | – | – | – | –
13 | Cc1nc(N2C[C@@H](Cc3nn[nH]n3)C[C@H]2C(=O)O)c2oc3ccccc3c2n1 [Example 25] | – | – | – | – | – | < 4.77 | < 5.00 | < 4.77 | – | –
14 | C[C@H]1CN2CC[C@]1(F)c1cc(Cl)cnc1O[C@H]1C[C@@H](C(=O)O)N(C1)c1nc(nc3c1oc1ccccc13)CCCCOC2=O [Example 35, (1R,9S,11S,33S)-4-chloro-1-fluoro-33-methyl-30-oxo-8,15,29-trioxa-6,12,23,31,36-pentaazaheptacyclo[29.2.2.1^9,12.1^13,24.0^2,7.0^14,22.0^16,21]heptatriaconta-2,4,6,13(36),14(22),16(21),17,19,23-nonaene-11-carboxylic acid] | – | – | – | 6.39 | 6.08 | – | – | – | – | –
15 | Cc1nc(N2C[C@@H](Cc3nn[nH]n3)C[C@H]2C(=O)O)c2oc3ccccc3c2n1 [Example No. 25 of WO 2020/142729, reference compound] | – | – | – | – | – | – | – | – | 7.26 | 4.77
